Assay [1] has as its system original DH5α (with null vector) (pQE-2- Original). The experiment in a line: microbe, parasite or virus in culture. The format is cell-based, E. coli. The settings on record: (pQE-2- Original) DH5α; for MIC: Escherichia coli, read-out: Minimum inhibitory concentration. Here is the method: (§1) The MIC was determined for E. coli DH5α cells, E. coli DH5α cells with vector and E. coli DH5α cells with bla NDM-1 carrying vectors. […] We next assayed the activities of these drugs in combination with novel screened molecules.
(§2) The MICs of four antibiotics were calculated (Table 4).

The subject of assay [2] is E. coli DH5α transformed with recombinant NDM-1 (pQE-2- NDM-1). The experiment in a line: microbe, parasite or virus in culture. The settings on record: for Minimum inhibitory concentration: (pQE-2- NDM-1) DH5α; for MIC: Escherichia coli, read-out: Minimum inhibitory concentration; for MIC of antibiotic when combined with each of the five molecules: bla NDM-1 clone, combined with M1, M17, M21, M61 or M75. The format is cell-based. The method, then:
as §1, §2

Turning to `CO[C@@]1(NC(=O)Cc2cccs2)C(=O)N2C(C(=O)O)=C(COC(N)=O)CS[C@@H]21` [Cefoxitin], the MIC in assay [1] is 2 µg/mL. Moreover, in assay [2], the Minimum inhibitory concentration was 16.0 µg/mL, the MIC was determined as 16 µg/mL and the “MIC of antibiotic when combined with each of the five molecules” value (from here on “MIC of antibiotic when combined”) was 8 µg/mL.

As to `CC(C)(O/N=C(\C(=O)N[C@@H]1C(=O)N2C(C(=O)[O-])=C(C[n+]3ccccc3)CS[C@H]12)c1csc(N)n1)C(=O)O` [Ceftazidime], in assay [1], the MIC worked out at 0.25 µg/mL. Moreover, in assay [2], the Minimum inhibitory concentration came to 8.00 µg/mL, the MIC is 8 µg/mL and the “MIC of antibiotic when combined” value stood at 4 µg/mL.

`CO/N=C(\C(=O)N[C@@H]1C(=O)N2C(C(=O)O)=C(COC(C)=O)CS[C@H]12)c1csc(N)n1` [Cephotaxime]: the Minimum inhibitory concentration in assay [1] was determined as 0.25 µg/mL; in assay [2], 512 µg/mL.

On to `C[C@@H](O)[C@H]1C(=O)N2C(C(=O)O)=C(SCCN=CN)C[C@H]12` [Imipenem], for which the MIC in assay [1] was 0.5 µg/mL. Also, in assay [2], the Minimum inhibitory concentration was 2.00 µg/mL, the MIC was 2 µg/mL and the “MIC of antibiotic when combined” value amounted to 1 µg/mL.

As for `C[C@@H](O)[C@H]1C(=O)N2C(C(=O)O)=C(S[C@@H]3CN[C@H](C(=O)N(C)C)C3)[C@H](C)[C@H]12` [Meropenem], in assay [1], the MIC was determined as 0.5 µg/mL. In assay [2], the Minimum inhibitory concentration is 2.00 µg/mL, the MIC is 2 µg/mL and the “MIC of antibiotic when combined” value was 1 µg/mL.

(Values after article PMC5569068, “Potential inhibitors designed against NDM-1 type metallo-β-lactamases: an attempt to enhance efficacies of antibiotics against multi-drug-resistant bacteria” (Scientific Reports, 2017).)
